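Following 48 hours of exposure in 96-well plates, responses at five concentrations were used to interpolate endpoints linearly. TGI: concentration producing complete growth inhibition.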
How the values were obtained:
Experiment in all cases: NCI tumour cell line growth inhibition, 48 h
786-0 renal = system: 786-0 renal
A498 renal = system: A498 renal
A549 NSCLC = system: A549 NSCLC
ACHN renal = system: ACHN renal
CAKI-1 renal = system: CAKI-1 renal
CCRF-CEM leukemia = system: CCRF-CEM leukemia
COLO 205 colon = system: COLO 205 colon
DLD-1 colon = system: DLD-1 colon
DMS 114 small cell lung = system: DMS 114 small cell lung
DMS 273 small cell lung = system: DMS 273 small cell lung
EKVX NSCLC = system: EKVX NSCLC
HCC-2998 colon = system: HCC-2998 colon
HCT-15 colon = system: HCT-15 colon
HL-60(TB) leukemia = system: HL-60(TB) leukemia
HOP-18 NSCLC = system: HOP-18 NSCLC
HOP-62 NSCLC = system: HOP-62 NSCLC
HT29 colon = system: HT29 colon
IGROV1 ovarian = system: IGROV1 ovarian
K-562 leukemia = system: K-562 leukemia
KM12 colon = system: KM12 colon
KM20L2 colon = system: KM20L2 colon
LOX IMVI melanoma = system: LOX IMVI melanoma
LXFL 529 NSCLC = system: LXFL 529 NSCLC
M14 melanoma = system: M14 melanoma
M19-MEL melanoma = system: M19-MEL melanoma
MALME-3M melanoma = system: MALME-3M melanoma
MOLT-4 leukemia = system: MOLT-4 leukemia
NCI-H226 lung = system: NCI-H226 lung
NCI-H23 lung = system: NCI-H23 lung
NCI-H460 lung = system: NCI-H460 lung
NCI-H522 lung = system: NCI-H522 lung
OVCAR-3 ovarian = system: OVCAR-3 ovarian
OVCAR-4 ovarian = system: OVCAR-4 ovarian
OVCAR-5 ovarian = system: OVCAR-5 ovarian
OVCAR-8 ovarian = system: OVCAR-8 ovarian
RPMI-8226 leukemia = system: RPMI-8226 leukemia
RXF-631 renal = system: RXF-631 renal
SF-268 CNS = system: SF-268 CNS
SF-295 CNS = system: SF-295 CNS
SF-539 CNS = system: SF-539 CNS
SK-MEL-2 melanoma = system: SK-MEL-2 melanoma
SK-MEL-28 melanoma = system: SK-MEL-28 melanoma
SK-MEL-5 melanoma = system: SK-MEL-5 melanoma
SK-OV-3 ovarian = system: SK-OV-3 ovarian
SN12C renal = system: SN12C renal
SNB-19 CNS = system: SNB-19 CNS
SNB-75 CNS = system: SNB-75 CNS
SNB-78 CNS = system: SNB-78 CNS
SW-620 colon = system: SW-620 colon
TK-10 renal = system: TK-10 renal
U251 CNS = system: U251 CNS
UACC-257 melanoma = system: UACC-257 melanoma
UACC-62 melanoma = system: UACC-62 melanoma
UO-31 renal = system: UO-31 renal
XF 498 CNS = system: XF 498 CNS
HCT-116 colon = system: HCT-116 colon
HOP-92 NSCLC = system: HOP-92 NSCLC
RXF 393 renal = system: RXF 393 renal
SR leukemia = system: SR leukemia

CCOc1ccc2c(c1)[n+]([O-])c(-c1ccc(Br)cc1)c(N)[n+]2[O-]
TGI (786-0 renal): > 100 µM | TGI (A498 renal): > 100 µM | TGI (A549 NSCLC): > 100 µM | TGI (ACHN renal): > 100 µM | TGI (CAKI-1 renal): 64.1 µM | TGI (CCRF-CEM leukemia): > 100 µM | TGI (COLO 205 colon): 52.4 µM | TGI (DLD-1 colon): > 100 µM | TGI (DMS 114 small cell lung): > 100 µM | TGI (DMS 273 small cell lung): > 100 µM | TGI (EKVX NSCLC): > 100 µM | TGI (HCC-2998 colon): > 100 µM | TGI (HCT-15 colon): > 100 µM | TGI (HL-60(TB) leukemia): > 100 µM | TGI (HOP-18 NSCLC): > 100 µM | TGI (HOP-62 NSCLC): > 100 µM | TGI (HT29 colon): > 100 µM | TGI (IGROV1 ovarian): > 100 µM | TGI (K-562 leukemia): > 100 µM | TGI (KM12 colon): > 100 µM | TGI (KM20L2 colon): > 100 µM | TGI (LOX IMVI melanoma): > 100 µM | TGI (LXFL 529 NSCLC): > 100 µM | TGI (M14 melanoma): > 100 µM | TGI (M19-MEL melanoma): > 100 µM | TGI (MALME-3M melanoma): > 100 µM | TGI (MOLT-4 leukemia): > 100 µM | TGI (NCI-H226 lung): > 100 µM | TGI (NCI-H23 lung): 70.8 µM | TGI (NCI-H460 lung): > 100 µM | TGI (NCI-H522 lung): 33.7 µM | TGI (OVCAR-3 ovarian): > 100 µM | TGI (OVCAR-4 ovarian): > 100 µM | TGI (OVCAR-5 ovarian): > 100 µM | TGI (OVCAR-8 ovarian): > 100 µM | TGI (RPMI-8226 leukemia): > 100 µM | TGI (RXF-631 renal): > 100 µM | TGI (SF-268 CNS): > 100 µM | TGI (SF-295 CNS): > 100 µM | TGI (SF-539 CNS): > 100 µM | TGI (SK-MEL-2 melanoma): > 100 µM | TGI (SK-MEL-28 melanoma): > 100 µM | TGI (SK-MEL-5 melanoma): 40.9 µM | TGI (SK-OV-3 ovarian): > 100 µM | TGI (SN12C renal): > 100 µM | TGI (SNB-19 CNS): > 100 µM | TGI (SNB-75 CNS): > 100 µM | TGI (SNB-78 CNS): > 100 µM | TGI (SW-620 colon): > 100 µM | TGI (TK-10 renal): > 100 µM | TGI (U251 CNS): > 100 µM | TGI (UACC-257 melanoma): > 100 µM | TGI (UACC-62 melanoma): > 100 µM | TGI (UO-31 renal): > 100 µM | TGI (XF 498 CNS): > 100 µM

O=C1C=CC(=C(c2ccc(O)cc2)c2ccc(O)cc2)C=C1
TGI (786-0 renal): 26.5 µM | TGI (A498 renal): 32 µM | TGI (A549 NSCLC): 53.3 µM | TGI (ACHN renal): 28.7 µM | TGI (CAKI-1 renal): 32.7 µM | TGI (CCRF-CEM leukemia): 12.2 µM | TGI (COLO 205 colon): 32.4 µM | TGI (DLD-1 colon): 23.4 µM | TGI (DMS 114 small cell lung): 7.54 µM | TGI (DMS 273 small cell lung): 19.9 µM | TGI (EKVX NSCLC): 28.6 µM | TGI (HCC-2998 colon): 27.6 µM | TGI (HCT-116 colon): 22.7 µM | TGI (HCT-15 colon): 28.6 µM | TGI (HL-60(TB) leukemia): 13.4 µM | TGI (HOP-18 NSCLC): 30.3 µM | TGI (HOP-62 NSCLC): 35.2 µM | TGI (HOP-92 NSCLC): 9.27 µM | TGI (HT29 colon): 38.6 µM | TGI (IGROV1 ovarian): 28 µM | TGI (K-562 leukemia): 14.2 µM | TGI (KM12 colon): 26.1 µM | TGI (KM20L2 colon): 30.7 µM | TGI (LOX IMVI melanoma): 22.9 µM | TGI (LXFL 529 NSCLC): 10.8 µM | TGI (M14 melanoma): 26.4 µM | TGI (MALME-3M melanoma): 24.9 µM | TGI (MOLT-4 leukemia): 29.7 µM | TGI (NCI-H226 lung): 37.5 µM | TGI (NCI-H23 lung): 21.2 µM | TGI (NCI-H460 lung): 30.5 µM | TGI (NCI-H522 lung): 21.8 µM | TGI (OVCAR-3 ovarian): 19.9 µM | TGI (OVCAR-4 ovarian): 27.6 µM | TGI (OVCAR-5 ovarian): 32.3 µM | TGI (OVCAR-8 ovarian): 25.2 µM | TGI (RPMI-8226 leukemia): 21 µM | TGI (RXF 393 renal): 16.9 µM | TGI (RXF-631 renal): 29.6 µM | TGI (SF-268 CNS): 29.7 µM | TGI (SF-295 CNS): 25.1 µM | TGI (SF-539 CNS): 23.6 µM | TGI (SK-MEL-2 melanoma): 17.7 µM | TGI (SK-MEL-28 melanoma): 25.3 µM | TGI (SK-MEL-5 melanoma): 19.8 µM | TGI (SK-OV-3 ovarian): 32.3 µM | TGI (SN12C renal): 21 µM | TGI (SNB-19 CNS): 29.3 µM | TGI (SNB-75 CNS): 10.2 µM | TGI (SNB-78 CNS): 17.4 µM | TGI (SR leukemia): 7.37 µM | TGI (SW-620 colon): 25.5 µM | TGI (TK-10 renal): 33.4 µM | TGI (U251 CNS): 22.6 µM | TGI (UACC-257 melanoma): 21.7 µM | TGI (UACC-62 melanoma): 14.5 µM | TGI (UO-31 renal): 31.1 µM | TGI (XF 498 CNS): 24.4 µM

Source: PubChem BioAssay (NCI)
